In the supplement of paper PMC4862054:
“And” between values parts separate entries of the source, which are not always exact repeats. Equal values may be shown once.

Key:
Details in all cases: incubation time: 72 h
[1] = test system: CAL-120; test: normalised response (% of control), CellTiter-Glo; higher = more viable cells (100 = DMSO, 0 = benzethonium chloride kill control)
Method in brief: (§1)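 CellTox Green fluorescence (485/520 nm) and, after 10 min at room temperature, CellTiter-Glo luminescence were read from breast cancer cell lines incubated 72 h in 384-well plates. Cells were seeded as 20 µl suspension onto compound at 5 concentrations in 10-fold steps over a 10,000-fold range chosen per compound. Each plate was normalised to 0.1 % DMSO (100) and a positive kill control (0). Values are normalised signals, one per concentration.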

[2] = test system: HCC1937; test: as above
Method in brief: as §1

[3] = test system: CAL-85-1; test: as above
Method in brief: as §1

[4] = test system: BT-549; test: as above
Method in brief: as §1

[5] = test system: MFM-223; test: as above
Method in brief: as §1

[6] = test system: MDA-MB-436; test: as above
Method in brief: as §1

[7] = test system: HDQ-P1; test: as above
Method in brief: as §1

[8] = test system: MCF-10A; test: as above
Method in brief: as §1

[9] = test system: BT-474; test: as above
Method in brief: as §1

[10] = test system: SK-BR-3; test: as above
Method in brief: as §1

[11] = test system: MDA-MB-468; test: as above
Method in brief: as §1

[12] = test system: MDA-MB-231; test: as above
Method in brief: as §1

[13] = test system: MDA-MB-453; test: as above
Method in brief: as §1

[14] = test system: DU-4475; test: as above
Method in brief: as §1

[15] = test system: CAL-51; test: as above
Method in brief: as §1

[16] = test system: CAL-148; test: as above
Method in brief: as §1

[17] = test system: HCC1599; test: as above
Method in brief: as §1

[18] = test system: HCC1143; test: as above
Method in brief: as §1

[19] = test system: Hs578T; test: as above
Method in brief: as §1

[20] = test system: CAL-120; test: normalised viability (% of control), CellTiter-Blue; higher = more viable cells (100 = DMSO, 0 = benzethonium chloride kill control)
Description: (§2)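 DSRT, CellTiter-Blue viability, 72 h incubation. Signal is normalised to DMSO and benzethonium chloride controls. Value is the normalised response at dose 1.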

[21] = test system: HCC1937; test: as above
Description: as §2

[22] = test system: CAL-85-1; test: as above
Description: as §2

[23] = test system: BT-549; test: as above
Description: as §2

[24] = test system: MFM-223; test: as above
Description: as §2

[25] = test system: MDA-MB-436; test: as above
Description: as §2

[26] = test system: HDQ-P1; test: as above
Description: as §2

[27] = test system: BT-474; test: as above
Description: as §2

[28] = test system: SK-BR-3; test: as above
Description: as §2

[29] = test system: MDA-MB-468; test: as above
Description: as §2

[30] = test system: MDA-MB-231; test: as above
Description: as §2

[31] = test system: MDA-MB-453; test: as above
Description: as §2

[32] = test system: DU-4475; test: as above
Description: as §2

[33] = test system: CAL-51; test: as above
Description: as §2

[34] = test system: CAL-148; test: as above
Description: as §2

[35] = test system: HCC1599; test: as above
Description: as §2

[36] = test system: HCC1143; test: as above
Description: as §2

[37] = test system: Hs578T; test: as above
Description: as §2

SMILES | normalised response [1] | normalised response [2] | normalised response [3] | normalised response [4] | normalised response [5] | normalised response [6] | normalised response [7] | normalised response [8] | normalised response [9] | normalised response [10] | normalised response [11] | normalised response [12] | normalised response [13] | normalised response [14] | normalised response [15] | normalised response [16] | normalised response [17] | normalised response [18] | normalised response [19] | normalised viability [20] | normalised viability [21] | normalised viability [22] | normalised viability [23] | normalised viability [24] | normalised viability [25] | normalised viability [26] | normalised viability [27] | normalised viability [28] | normalised viability [29] | normalised viability [30] | normalised viability [31] | normalised viability [32] | normalised viability [33] | normalised viability [34] | normalised viability [35] | normalised viability [36] | normalised viability [37]
CN1CCN(c2nc(C3=C(c4c[nH]c5ccccc45)C(=O)NC3=O)c3ccccc3n2)CC1 [Sotrastaurin] (1 nM) | 97% | 99% | 93% | 103% | 93% | 94% | 99.8% | 88% | 90.6% | 93.3% | 104% | 98% | 96.9% | 97.5% | 100% | 94.8% | 89.5% | 89.9% | 99.2% | 117% | 89.5% | 109% | 86.1% | 100% | 104% | 85.2% | 116% | 91.3% | 97.7% | 94.1% | 102% | 104% | 97% | 116% | 95.2% | 131% | 101%
O=C(O)CC[C@H]1CC[C@@](c2cc(F)ccc2F)(S(=O)(=O)c2ccc(Cl)cc2)CC1 [MK-0752] (0.1 nM) | 95.5% | 100% | 99.5% | 103% | 106% | 101% | 97.8% | 116% | 101% | 111% | 102% | 104% | 116% | 97.5% | 68.8% | 101% | 79.3% | 102% | 98.7% | 88.8% | 84.8% | 100% | 117% | 102% | 109% | 99.9% | 119% | 94.4% | 96.7% | 99.2% | 117% | 106% | 98.2% | 106% | 103% | 99.7% | 106%
NC(=O)NO [Hydroxyurea] (10 nM) | 96.7% | 91.6% | 98.5% | 108% | 105% | 90.1% | 97.3% | 110% | 98.6% | 113% | 103% | 98.3% | 110% | 106% | 74.9% | 101% | 101% | 104% | 101% | 98.9% | 95.8% | 109% | 99.2% | 104% | 109% | 116% | 97.2% | 52% | 112% | 101% | 105% | 123% | 100% | 107% | 113% | 102% | 107%
CC(C)C[C@H](NC(=O)[C@H](CCc1ccccc1)NC(=O)CN1CCOCC1)C(=O)N[C@@H](Cc1ccccc1)C(=O)N[C@@H](CC(C)C)C(=O)[C@@]1(C)CO1 [Carfilzomib] (0.1 nM) | 103% | 105% | 105% | 97.3% | 104% | 105% | 110% | 106% | 108% | 105% | 109% | 107% | 108% | 103% | 124% | 109% | 120% | 104% | 100% | 89.8% | 84.8% | 95.5% | 105% | 83.4% | 101% | 95.6% | 116% | 99.7% | 100% | 132% | 96.9% | 107% | 110% | 99.9% | 100% | 100% | 100%
Cc1c(N)nc([C@H](CC(N)=O)NC[C@H](N)C(N)=O)nc1C(=O)N[C@H](C(=O)N[C@H](C)[C@@H](O)[C@H](C)C(=O)N[C@H](C(=O)NCCc1nc(-c2nc(C(=O)NCCC[S+](C)C)cs2)cs1)[C@@H](C)O)[C@@H](OC1OC(CO)C(O)C(O)C1OC1OC(CO)C(O)C(OC(N)=O)C1O)c1cnc[nH]1 (some centres undefined) [Bleomycin] (1 nM) | 99% | 98% | 97.4% | 104% | 96.5% | 102% | 96.4% | 93.2% | 96.3% | 103% | 95.5% | 92.3% | 105% | 97.1% | 113% | 93.2% | 90.8% | 96.4% | 97.3% | 89.3% | 92.7% | 97.8% | 97.3% | 102% | 121% | 91.5% | 84.4% | 83.4% | 85.4% | 86.7% | 91.7% | 116% | 94.5% | 112% | 126% | 92.5% | 98.8%
CO[C@H](C(=O)[C@@H](O)[C@@H](C)O)[C@@H]1Cc2cc3cc(O[C@H]4C[C@@H](O[C@@H]5C[C@@H](O)[C@H](O)[C@@H](C)O5)[C@H](O)[C@@H](C)O4)c(C)c(O)c3c(O)c2C(=O)[C@H]1O[C@H]1C[C@@H](O[C@@H]2C[C@@H](O)[C@@H](O[C@@H]3C[C@](C)(O)[C@H](O)[C@@H](C)O3)[C@@H](C)O2)[C@H](O)[C@@H](C)O1 [Plicamycin] (1 nM) | 113% | 96.9% | 102% | 102% | 106% | 95% | 101% | 103% | 104% | 108% | 113% | 99.8% | 108% | 107% | 92.5% | 112% | 102% | 92.6% | 102% | 82.5% and 79.1% | 97.7% and 85% | 87.5% and 82.1% | 93% and 90.1% | 91.7% and 84.2% | 108% and 92.6% | 111% | 106% and 92.2% | 93.3% and 88.4% | 96.7% and 101% | 94% and 98.7% | 95.5% and 109% | 112% and 109% | 102% and 112% | 111% and 108% | 101% and 107% | 96.8% and 82.4% | 113% and 92.7%
CC(C)C(=O)Nc1ccc([N+](=O)[O-])c(C(F)(F)F)c1 [Flutamide] (1 nM) | 103% | 94.7% | 96.7% | 98.5% | 98.4% | 103% | 101% | 103% | 98.5% | 105% | 96% | 99% | 113% | 97% | 113% | 96.8% | 97.4% | 93.2% | 98.2% | 93.6% | 65.1% | 96.8% | 86.2% | 90.4% | 94.7% | 118% | 96.8% | 98.1% | 96.1% | 90.2% | 104% | 100% | 109% | 114% | 119% | 90.7% | 134%
